The results in this text go back to patent publication US9963456B2, “Pyrrolopyrimidine compound or salt thereof and compositions containing the pyrrolopyrimidine compound or salt thereof” (TAIHO PHARMACEUTICAL CO., LTD., priority 2014, dated 2018).

One assay has as its target carbonic anhydrase II (Homo sapiens (Human), UniProt P00918). Kind of assay: Carbonic anhydrase II enzyme activity inhibition (4-NPA esterase activity). The note with it: 4-nitrophenyl acetate esterase activity, absorbance at 405 nm. The class given is biochemical.
The target in assay [1] is NAE (heterodimer of APPBP1 and UBA3) (Homo sapiens (Human), UniProt Q8TBC4). As to the kind of experiment: Nedd8 conjugation inhibitory activity (AlphaScreen assay). The class given is biochemical. To be noted: purified NAE, GST-UBC12, Biotin-Nedd8, ATP.
NAE (heterodimer of APPBP1 and UBA3), sequence (Q8TBC4 whole entry): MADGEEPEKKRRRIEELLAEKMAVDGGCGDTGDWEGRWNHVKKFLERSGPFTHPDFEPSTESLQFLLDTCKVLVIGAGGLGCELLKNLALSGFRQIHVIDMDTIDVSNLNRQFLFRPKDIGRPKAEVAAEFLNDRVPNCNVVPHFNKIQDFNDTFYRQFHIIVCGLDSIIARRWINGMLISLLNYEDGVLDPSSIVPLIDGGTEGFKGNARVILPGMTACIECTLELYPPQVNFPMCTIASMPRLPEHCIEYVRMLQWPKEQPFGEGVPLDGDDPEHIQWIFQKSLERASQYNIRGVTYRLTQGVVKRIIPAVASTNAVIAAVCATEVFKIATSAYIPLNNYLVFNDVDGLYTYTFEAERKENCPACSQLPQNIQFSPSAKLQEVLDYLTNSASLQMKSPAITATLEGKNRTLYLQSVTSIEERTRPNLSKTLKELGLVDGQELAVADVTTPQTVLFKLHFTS
NAE (heterodimer of APPBP1 and UBA3), sequence (Q13564 whole entry partner): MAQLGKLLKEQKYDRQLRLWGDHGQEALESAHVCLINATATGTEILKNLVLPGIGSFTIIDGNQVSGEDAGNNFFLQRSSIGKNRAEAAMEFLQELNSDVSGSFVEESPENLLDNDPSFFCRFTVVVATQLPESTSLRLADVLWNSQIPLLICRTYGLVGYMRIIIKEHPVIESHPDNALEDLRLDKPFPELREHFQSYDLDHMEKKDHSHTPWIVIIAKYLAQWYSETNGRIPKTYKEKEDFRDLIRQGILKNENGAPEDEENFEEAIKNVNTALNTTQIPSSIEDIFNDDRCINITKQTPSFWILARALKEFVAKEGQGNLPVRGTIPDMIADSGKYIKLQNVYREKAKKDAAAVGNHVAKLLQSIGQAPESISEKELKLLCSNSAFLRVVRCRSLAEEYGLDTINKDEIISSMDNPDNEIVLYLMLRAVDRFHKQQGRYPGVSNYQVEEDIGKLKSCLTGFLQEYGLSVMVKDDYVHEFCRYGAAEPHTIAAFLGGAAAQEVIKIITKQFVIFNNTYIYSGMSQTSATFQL

Bounds are passed on as bounds.

In general, IC50 refers to the concentration at which inhibition is half-maximal. Lower therefore signals higher potency. Compound `Nc1ncnc2c1c(C#Cc1c(F)cc(N3CC(O)C3)cc1F)cn2[C@@H]1O[C@H](CNS(N)(=O)=O)[C@@H](O)[C@H]1O` [Example 39, 4-Amino-5-[2-[2,6-difluoro-4-(3-hydroxyazetidin-1-yl)phenyl]ethynyl]-7-[(2R,3R,4S,5R)-3,4-dihydroxy-5-[(sulfamoylamino)methyl]tetrahydrofuran-2-yl]pyrrolo[2,3-d]pyrimidine] displayed a half-maximal inhibitory concentration (IC50) against carbonic anhydrase II above 1 µM. `Nc1ncnc2c1c(-c1coc(-c3ccccc3)n1)cn2[C@@H]1O[C@H](CNS(N)(=O)=O)[C@@H](O)[C@H]1O` [Example 12, 4-[4-Amino-7-[(2R,3R,4S,5R)-3,4-dihydroxy-5-[(sulfamoylamino)methyl]tetrahydrofuran-2-yl]pyrrolo[2,3-d]pyrimidin-5-yl]-2-phenyl-oxazol] showed a 50% inhibitory concentration (IC50) against carbonic anhydrase II above 1 µM. In turn, `Nc1ncnc2c1c(C#CCC1CCCCC1)cn2[C@@H]1O[C@H](CNS(N)(=O)=O)[C@@H](O)[C@H]1O` [Example 50, 4-Amino-5-(3-cyclohexylprop-1-ynyl)-7-[(2R,3R,4S,5R)-3,4-dihydroxy-5-[(sulfamoylamino)methyl]tetrahydrofuran-2-yl]pyrrolo[2,3-d]pyrimidine] registered an IC50 against carbonic anhydrase II above 1 µM. For the compound `Nc1ncnc2c1c(C#Cc1cccc3cccnc13)cn2[C@@H]1O[C@H](CNS(N)(=O)=O)[C@@H](O)[C@H]1O` [Example 17, 8-[2-[4-Amino-7-[(2R,3R,4S,5R)-3,4-dihydroxy-5-[(sulfamoylamino)methyl]tetrahydrofuran-2-yl]pyrrolo[2,3-d]pyrimidin-5-yl]ethynyl]quinoline], the half-inhibitory concentration (IC50) in assay [1] came to 0.0054 µM. As for `Nc1ncnc2c1c(C#Cc1cccc3cccnc13)cn2[C@@H]1C[C@H](CNS(N)(=O)=O)[C@@H](O)[C@H]1O` [Example 96, 8-[2-[4-Amino-7-[(1R,2S,3R,4R)-2,3-dihydroxy-4-[(sulfamoylamino)methyl]cyclopentyl]pyrrolo[2,3-d]pyrimidin-5-yl]ethynyl]quinoline], in assay [1], the IC50 worked out at 0.0092 µM. For the compound `Nc1ncnc2c1c(C#Cc1c(F)cc(OCn3cccn3)cc1F)cn2[C@@H]1C[C@H](CNS(N)(=O)=O)[C@@H](O)[C@H]1O` [Example 104, 4-Amino-5-[2-[2,6-difluoro-4-(pyrazol-1-ylmethoxy)phenyl]ethynyl]-7-[(1R,2S,3R,4R)-2,3-dihydroxy-4-[(sulfamoylamino)methyl]cyclopentyl]pyrrolo[2,3-d]pyrimidine], the midpoint of inhibition in assay [1], the IC50, lay at 0.0089 µM.

For `Nc1ncnc2c1c(C#Cc1ccc(OCc3ccccc3)cc1)cn2[C@@H]1O[C@H](CNS(N)(=O)=O)[C@@H](O)[C@H]1O` [Example 3, 4-Amino-5-[2-(4-benzyloxyphenyl)ethynyl]-7-[(2R,3R,4S,5R)-3,4-dihydroxy-5-[(sulfamoylamino)methyl]tetrahydrofuran-2-yl]pyrrolo[2,3-d]pyrimidine], on carbonic anhydrase II, the IC50 was above 1 µM. In assay [1], `Cc1ccccc1-c1nc(-c2cn([C@H]3C[C@H](O)[C@@H](COS(N)(=O)=O)O3)c3ncnc(N)c23)cs1` [Example 139, [(2R,3S,5R)-5-[4-Amino-5-[2-(o-tolyl)thiazol-4-yl]pyrrolo[2,3-d]pyrimidin-7-yl]-3-hydroxy-tetrahydrofuran-2-yl]methyl sulfamate] registered a concentration for half-maximal inhibition (IC50) of 0.017 µM. In other words, the double-digit nanomolar range. `COc1cccc(OC)c1C#Cc1cn([C@@H]2C[C@H](CNS(N)(=O)=O)[C@@H](O)[C@H]2O)c2ncnc(N)c12` [Example 94, 4-Amino-7-[(1R,2S,3R,4R)-2,3-dihydroxy-4-[(sulfamoylamino)methyl]cyclopentyl]-5-[2-(2,6-dimethoxyphenyl)ethynyl]pyrrolo[2,3-d]pyrimidine] came in with an IC50 in assay [1] of 0.021 µM. The compound `Nc1ncnc2c1c(C#Cc1c(F)cc(N3CCC(=O)CC3)cc1F)cn2[C@@H]1O[C@H](CNS(N)(=O)=O)[C@@H](O)[C@H]1O` [Example 42, 4-Amino-5-[2-[2,6-difluoro-4-(4-oxo-1-piperidyl)phenyl]ethynyl]-7-[(2R,3R,4S,5R)-3,4-dihydroxy-5-[(sulfamoylamino)methyl]tetrahydrofuran-2-yl]pyrrolo[2,3-d]pyrimidine] gave an IC50 in assay [1] of 0.0043 µM. Against the preceding compound, the IC50 is about 4.9-fold lower. `Nc1ncnc2c1c(C#Cc1ccccn1)cn2[C@@H]1O[C@H](CNS(N)(=O)=O)[C@@H](O)[C@H]1O` [Example 44, 4-Amino-7-[(2R,3R,4S,5R)-3,4-dihydroxy-5-[(sulfamoylamino)methyl]tetrahydrofuran-2-yl]-5-[2-(2-pyridyl)ethynyl]pyrrolo[2,3-d]pyrimidine] displayed a half-maximal inhibitory concentration (IC50) in assay [1] of 0.029 µM. `CC(C)Oc1cccc(F)c1C#Cc1cn([C@@H]2O[C@H](CNS(N)(=O)=O)[C@@H](O)[C@H]2O)c2ncnc(N)c12` [Example 56, 4-Amino-7-[(2R,3R,4S,5R)-3,4-dihydroxy-5-[(sulfamoylamino)methyl]tetrahydrofuran-2-yl]-5-[2-(2-fluoro-6-isopropoxy-phenyl)ethynyl]pyrrolo[2,3-d]pyrimidine]: the IC50 in assay [1] amounted to 0.0053 µM.

For the compound `Cc1ccc(Cn2cc(-c3cn([C@@H]4C[C@H](COS(N)(=O)=O)[C@@H](O)C4)c4ncnc(N)c34)cn2)cc1C` [Example 138, [(1R,2S,4R)-4-[4-Amino-5-[1-[(3,4-dimethylphenyl)methyl]pyrazol-4-yl]pyrrolo[2,3-d]pyrimidin-7-yl]-2-hydroxy-cyclopentyl]methyl sulfamate], half-maximal inhibition in assay [1] (IC50) was put at 0.0065 µM.

For the compound `Nc1ncnc2c1c(C#Cc1ccccc1OC(F)(F)F)cn2[C@@H]1O[C@H](CNS(N)(=O)=O)[C@@H](O)[C@H]1O` [Example 14, 4-Amino-7-[(2R,3R,4S,5R)-3,4-dihydroxy-5-[(sulfamoylamino)methyl]tetrahydrofuran-2-yl]-5-[2-[2-(trifluoromethoxy)phenyl]ethynyl]pyrrolo[2,3-d]pyrimidine], the IC50 against carbonic anhydrase II is above 1 µM.

For `Nc1ncnc2c1c(C#CC1CCc3ccccc31)cn2[C@@H]1O[C@H](CNS(N)(=O)=O)[C@@H](O)[C@H]1O` (stereo partly drawn) [Example 21, 4-Amino-7-[(2R,3R,4S,5R)-3,4-dihydroxy-5-[(sulfamoylamino)methyl]tetrahydrofuran-2-yl]-5-(2-indan-1-ylethynyl)pyrrolo[2,3-d]pyrimidine], in assay [1], the midpoint of inhibition, the IC50, lay at 0.015 µM. In other words, the double-digit nanomolar range. In turn, `CCS(=O)(=O)c1cccc(F)c1C#Cc1cn([C@@H]2C[C@H](CNS(N)(=O)=O)[C@@H](O)[C@H]2O)c2ncnc(N)c12` [Example 142, 4-Amino-7-[(1R,2S,3R,4R)-2,3-dihydroxy-4-[(sulfamoylamino)methyl]cyclopentyl]-5-[2-(2-ethylsulfonyl-6-fluoro-phenyl)ethynyl]pyrrolo[2,3-d]pyrimidine] displayed an IC50 in assay [1] of 0.009 µM. Same read-out and setting: under `COc1ncc(F)c(C#Cc2cn([C@@H]3O[C@H](CNS(N)(=O)=O)[C@@H](O)[C@H]3O)c3ncnc(N)c23)c1F` [Example 80, 4-Amino-5-[2-(3,5-difluoro-2-methoxy-4-pyridyl)ethynyl]-7-[(2R,3R,4S,5R)-3,4-dihydroxy-5-[(sulfamoylamino)methyl]tetrahydrofuran-2-yl]pyrrolo[2,3-d]pyrimidine] stands 0.014 µM.

As for `Nc1ncnc2c1c(C#CCc1ccccc1F)cn2[C@@H]1O[C@H](CNS(N)(=O)=O)[C@@H](O)[C@H]1O` [Example 36, 4-Amino-7-[(2R,3R,4S,5R)-3,4-dihydroxy-5-[(sulfamoylamino)methyl]tetrahydrofuran-2-yl]-5-[3-(2-fluorophenyl)prop-1-ynyl]pyrrolo[2,3-d]pyrimidine], the half-maximal inhibitory concentration (IC50) against carbonic anhydrase II was above 1 µM.

As to `Nc1ncnc2c1c(C#Cc1c(F)cccc1S(N)(=O)=O)cn2[C@@H]1O[C@H](CNS(N)(=O)=O)[C@@H](O)[C@H]1O` [Example 84, 2-[2-[4-Amino-7-[(2R,3R,4S,5R)-3,4-dihydroxy-5-[(sulfamoylamino)methyl]tetrahydrofuran-2-yl]pyrrolo[2,3-d]pyrimidin-5-yl]ethynyl]-3-fluoro-benzenesulfonamide], the concentration for half-maximal inhibition (IC50) in assay [1] was determined as 0.0097 µM. In the case of `CCOc1cccc(F)c1C#Cc1cn([C@@H]2C=C(CNS(N)(=O)=O)[C@@H](O)[C@H]2O)c2ncnc(N)c12` [Example 129, 4-Amino-7-[(1R,4R,5S)-4,5-dihydroxy-3-[(sulfamoylamino)methyl]cyclopent-2-en-1-yl]-5-[2-(2-ethoxy-6-fluoro-phenyl)ethynyl]pyrrolo[2,3-d]pyrimidine], the IC50 against carbonic anhydrase II is above 1 µM. In the case of `CSc1cccc(F)c1C#Cc1cn([C@@H]2C=C(CNS(N)(=O)=O)[C@@H](O)[C@H]2O)c2ncnc(N)c12` [Example 130, 4-Amino-7-[(1R,4R,5S)-4,5-dihydroxy-3-[(sulfamoylamino)methyl]cyclopent-2-en-1-yl]-5-[2-(2-fluoro-6-methylsulfanyl-phenyl)ethynyl]pyrrolo[2,3-d]pyrimidine], the IC50 in assay [1] worked out at 0.004 µM. In assay [1], `CCS(=O)(=O)c1cc(N2CC[C@@H](O)C2)cc(F)c1C#Cc1cn([C@@H]2O[C@H](CNS(N)(=O)=O)[C@@H](O)[C@H]2O)c2ncnc(N)c12` [Example 72, 4-Amino-7-[(2R,3R,4S,5R)-3,4-dihydroxy-5-[(sulfamoylamino)methyl]tetrahydrofuran-2-yl]-5-[2-[2-ethylsulfonyl-6-fluoro-4-[(3R)-3-hydroxypyrrolidin-1-yl]phenyl]ethynyl]pyrrolo[2,3-d]pyrimidine] yielded an IC50 of 0.0044 µM. On to `Nc1ncnc2c1c(C#Cc1cccc3ccccc13)cn2[C@@H]1O[C@H](CNS(N)(=O)=O)[C@@H](O)[C@H]1O` [Example 6, 4-Amino-7-[(2R,3R,4S,5R)-3,4-dihydroxy-5-[(sulfamoylamino)methyl]tetrahydrofuran-2-yl]-5-[2-(1-naphthyl)ethynyl]pyrrolo[2,3-d]pyrimidine], for which the IC50 against carbonic anhydrase II is above 1 µM. In the case of `Nc1ncnc2c1c(C#Cc1c(F)cc(N3CCCC(O)C3)cc1F)cn2[C@@H]1O[C@H](CNS(N)(=O)=O)[C@@H](O)[C@H]1O` (stereo partly drawn) [Example 38, 4-Amino-5-[2-[2,6-difluoro-4-(3-hydroxy-1-piperidyl)phenyl]ethynyl]-7-[(2R,3R,4S,5R)-3,4-dihydroxy-5-[(sulfamoylamino)methyl]tetrahydrofuran-2-yl]pyrrolo[2,3-d]pyrimidine], the 50% inhibitory concentration (IC50) in assay [1] amounted to 0.0035 µM.
